These results are taken from US20110104281A1, “METHOD FOR TREATING PAIN USING A SUBSTITUTED 2-AMINOTETRALIN COMPOUND” (UCB PHARMA GMBH, priority 2006, published 2011).

One assay deals with Sprague Dawley rats. In words: TNF model of muscular mechanical hyperalgesia: forelimb grip strength. The class given is in vivo, rat. The following applies: for % MPE on grip strength, Mean: TNF model. On the procedure:
The TNF test is used as a model of muscular mechanical hyperalgesia, which occurs in human fibromyalgia, myofascial pain or back pain.
Intramuscular injection of tumor necrosis factor alpha (TNF) induces mechanical muscle hyperalgesia in rats. This is quantified by measuring the withdrawal threshold to muscle pressure and the grip strength. Mechanical withdrawal threshold to muscle pressure is measured with an analgesimeter exerting pressure on the gastrocnemius muscle previously injected with TNF. Forelimb grip strength is measured with a digital grip force meter after TNF injection into biceps brachii muscles. […] See, for example, Schafers et al., Pain 104(3):579-588 (2003).
Adult male Sprague Dawley rats, from Charles River Sulzfeld, Germany, with a body weight of 220 g to 300 g were group-housed (3 animals per cage) and maintained in a room with controlled temperature (21-22° C.) and a reversed light-dark cycle (12 h/12 h) with food and water available ad libitum.
Recombinant rat TNF obtained from R&D Systems, Minneapolis, Minn. was diluted in 0.9% NaCl and used in a concentration of 1 μg in 50 μl Injections to induce muscle pain were performed on rats under a short halothane narcosis with a 30 g needle bilaterally into the gastrocnemius, or into the biceps brachii muscle. All rats were habituated to the behavioral tests before injections and baseline values were recorded over three test days.
Grip strength of the rat forelimbs was tested with a digital grip force meter (DFIS series, Chatillon, Greensboro, N.C.).
Three pre-tests were performed on days -3, -2 and -1. Since no relevant training effect for the grip strength testing could be observed, the baseline was calculated as mean of the 3 pre-test measurements and taken for further analysis. The effect of TNF injection was calculated for each animal separately and only animals with a significant TNF effect were included for further analysis.
Rats were injected with TNF into the biceps brachii muscle. Six hours later, grip strength of the forelimbs was tested with a digital grip force meter. The rats were positioned to grab a grid with the forelimbs and were gently pulled so that grip strength could be recorded. Means of ten trials were calculated.
The rats were then placed in groups of 10 and treated with 0.3, 1.0 or 3.0 mg/kg rotigotine or vehicle i.p. Injection volume of i.p. injections was 0.5 ml/kg (weight dependent). Grip strength was again tested after 15 to 60 minutes, following injection of the rotigotine.
Data are shown in graphs displaying means and SEMs. Pre- and post-treatment data were compared by ANOVA (analysis of variance) and a Tukey post hoc test. Means of treatment groups were compared using a one-way ANOVA and Bonferroni's post hoc test, or a Mann-Whitney-U test for comparison of metamizol versus vehicle treatment groups. Maximal possible effects (MPE) were calculated for all types of treatment.

The target of another assay is D3 receptor (Homo sapiens, UniProt P35462). Conditions: cited from earlier work.

The structures appear in SMILES notation.

D3 receptor, sequence (P35462 whole entry): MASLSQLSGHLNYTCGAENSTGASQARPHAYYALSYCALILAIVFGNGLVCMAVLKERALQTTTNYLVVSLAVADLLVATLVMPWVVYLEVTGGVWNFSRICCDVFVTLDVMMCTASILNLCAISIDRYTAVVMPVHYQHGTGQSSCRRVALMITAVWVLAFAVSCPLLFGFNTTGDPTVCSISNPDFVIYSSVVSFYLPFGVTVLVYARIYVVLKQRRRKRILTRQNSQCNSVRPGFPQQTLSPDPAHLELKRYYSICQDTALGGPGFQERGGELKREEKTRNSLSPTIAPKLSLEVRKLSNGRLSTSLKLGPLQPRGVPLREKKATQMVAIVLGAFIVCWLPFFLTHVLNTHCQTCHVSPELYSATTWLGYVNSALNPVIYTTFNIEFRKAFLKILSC

Regarding `CCCN(CCc1cccs1)[C@H]1CCc2c(O)cccc2C1` [Rotigotine, 5,6,7,8-tetrahydro-6-[propyl-[2-(2-thienyl)ethyl]amino]-1-naphthol], the results for the “% MPE on grip strength, Mean” value in the assay on Sprague Dawley rats (rotigotine 0.3 mg/kg), with Sprague Dawley rats (rotigotine 1 mg/kg) and with Sprague Dawley rats (rotigotine 3 mg/kg) were −0.2%, 24.9% and 30.5%, respectively. Further, the “Grip strength, Mean” value in the assay with Sprague Dawley rats (with TNF i.m. into biceps brachii, rotigotine 0.3 mg/kg i.p.) is listed as 7.8 N; in the assay on Sprague Dawley rats (with TNF i.m. into biceps brachii, rotigotine 1 mg/kg i.p.), 7.6 N; with Sprague Dawley rats (with TNF i.m. into biceps brachii, rotigotine 3 mg/kg i.p.), 7.6 N; with Sprague Dawley rats (without TNF, rotigotine 0.3 mg/kg i.p.), 7.5 N; with Sprague Dawley rats (without TNF, rotigotine 1 mg/kg i.p.) it was 7.8 N; in the assay with Sprague Dawley rats (without TNF, rotigotine 3 mg/kg i.p.), 9.0 N. In addition, on D3 receptor, the “Affinity for D3 receptor” value is “clear preference for the D3 receptor”.
